In assay [1] the test system is convulsions induced by AMPA. Nature of the assay: Anticonvulsant action induced by AMPA. Format: in vivo, mice of ddy strain. The conditions noted are these: 25 mg/kg orally, male ddy mice; AMPA continuously injected into lateral ventricle 30 minutes or 1 hour after. The protocol: A test compound was suspended in a 0.5% methyl cellulose solution or in sesame oil and was orally administered (25 mg/kg) to male mice of ddy strain. After 30 minutes or 1 hour from the oral administration, AMPA was continuously injected ([…]/5 μl/minute/mouse) into lateral ventricle to induce the convulsions. The effect was judged by a time-extending action until the convulsion takes place by a continuous injection of AMPA.

Setting [2] is: Table 1, primary culture of rat embryo cerebral cortex nerve cells, 2 μM AMPA, 1 μM MK-801.
[3] abbreviates: Table 2, suppression of AMPA-induced calcium influx into nerve cells.
[4] abbreviates: Table 3, primary culture of rat embryo cerebral cortex nerve cells, 2 μM AMPA, 1 μM MK-801.

20 molecules from patent US6949571B2, “1,2-dihydropyridine compounds, process for preparation of the same and use thereof” (Eisai Co., Ltd., priority 2000, dated 2005) can be followed below.

Molecules are shown by their SMILES. Read-outs that look alike come from different tables or passages of the source.
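For IC50 in this document: primary rat embryonic cortical neurons grown on an astrocyte layer in 96-well plates, used after at least 8 to 10 days in culture, Fura2-AM fluorescence ratio at 340/380 nm excitation.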

As to `O=c1c(-c2cccnc2Cl)cc(-c2ccccn2)cn1-c1ccccc1` [Example 4, 3-(2-Chloro-3-pyridyl)-5-(2-pyridyl)-1-phenyl-1,2-dihydropyridin-2-one], the IC50 in the assay with AMPA receptor (setting [2]) worked out at 100 nM. For the same molecule, the “anticonvulsant action (time-extending action until the convulsion takes place)” value (shortened to “anticonvulsant action”) in assay [1] was “significant anticonvulsant action”.

For the molecule `N#Cc1ccccc1-c1cc(-c2ccccn2)cn(-c2cccc(N)c2)c1=O` [Example 9, 3-(2-Cyanophenyl)-5-(2-pyridyl)-1-(3-aminophenyl)-1,2-dihydropyridin-2-one], the IC50 in the assay on AMPA receptor (setting [2]) was 30 nM. The “anticonvulsant action” value in assay [1] is “significant anticonvulsant action”.

As to `CN(C)c1cccc(-n2cc(-c3ccccn3)cc(-c3ccccc3C#N)c2=O)c1` [Example 12, 3-(2-Cyanophenyl)-5-(2-pyridyl)-1-(3-dimethylaminophenyl)-1,2-dihydropyridin-2-one], in the assay with AMPA receptor (setting [2]), the IC50 amounted to 100 nM. In addition, the “anticonvulsant action” value in assay [1] was “significant anticonvulsant action”.

For the molecule `N#Cc1ncccc1-c1cc(-c2ccccn2)cn(-c2ccccc2)c1=O` [Example 16, 3-(2-Cyano-3-pyridyl)-5-(2-pyridyl)-1-phenyl-1,2-dihydropyridin-2-one], the IC50 in the assay on AMPA receptor (setting [2]) came out at 100 nM. In addition, the “anticonvulsant action” value in assay [1] is “significant anticonvulsant action”.

For `N#Cc1ccccc1-c1cc(-c2ccccc2)cn(-c2ccccc2)c1=O` [Example 41, 3-(2-Cyanophenyl)-1,5-diphenyl-1,2-dihydropyridin-2-one], the IC50 in the assay with AMPA receptor (setting [2]) stood at 80 nM. For the same molecule, in assay [1], the “anticonvulsant action” value is listed as “significant anticonvulsant action”.

Regarding `N#Cc1ccccc1-c1cc(-c2ccccc2)cn(-c2cccnc2)c1=O` [Example 47, 3-(2-Cyanophenyl)-5-phenyl-1-(3-pyridyl)-1,2-dihydropyridin-2-one], 600 nM corresponded to half-maximal inhibition in the assay on AMPA receptor (setting [2]) (IC50). Moreover, in assay [1], the “anticonvulsant action” value was “significant anticonvulsant action”.

On to `O=c1c(-c2ccccc2Cl)cc(-c2ccccn2)cn1-c1ccccc1` [Example 57, 3-(2-Chlorophenyl)-5-(2-pyridyl)-1-phenyl-1,2-dihydropyridin-2-one], for which, in the assay on AMPA receptor (setting [2]), inhibition was half-maximal at 200 nM (IC50). The “anticonvulsant action” value in assay [1] was “significant anticonvulsant action”.

In the assay on AMPA receptor (setting [2]), `O=c1c(-c2ccccc2)cc(-c2ccccn2)cn1-c1ccccc1` [Example 61, 3-Phenyl-5-(2-pyridyl)-1-phenyl-1,2-dihydropyridin-2-one] showed an IC50 of 200 nM. In assay [1], the “anticonvulsant action” value is reported as “significant anticonvulsant action”.

With `N#Cc1cccc(-c2cc(-c3ccccn3)cn(-c3ccccc3)c2=O)n1` [Example 78, 3-(6-Cyano-2-pyridyl)-5-(2-pyridyl)-1-phenyl-1,2-dihydropyridin-2-one], the IC50 in the assay on AMPA receptor (setting [2]) came out at 1400 nM. For the same molecule, the “anticonvulsant action” value in assay [1] was “significant anticonvulsant action”.

On to `N#Cc1ccccc1-c1cc(-c2ccccn2)cn(-c2ccc(F)cc2)c1=O` [Example 91, 3-(2-Cyanophenyl)-5-(2-pyridyl)-1-(4-fluorophenyl)-1,2-dihydropyridin-2-one], for which the IC50 with AMPA receptor (setting [2]) was determined as 50 nM. Further, in assay [1], the “anticonvulsant action” value is on record as “significant anticonvulsant action”.

Molecule `COc1ccccc1-n1cc(-c2ccccn2)cc(-c2ccccc2C#N)c1=O` [Example 126, 3-(2-Cyanophenyl)-5-(2-pyridyl)-1-(2-methoxyphenyl)-1,2-dihydropyridin-2-one] came in with an IC50 in the assay on AMPA receptor (setting [2]) of 300 nM. For the same molecule, the “anticonvulsant action” value in assay [1] was “significant anticonvulsant action”.

Molecule `O=c1c(-c2ccccc2Cl)cc(-c2ccccn2)cn1-c1cccnc1` [Example 128, 3-(2-Chlorophenyl)-5-(2-pyridyl)-1-(3-pyridyl)-1,2-dihydropyridin-2-one] registered an IC50 in the assay on AMPA receptor (setting [2]) of 70 nM. For the same molecule, the “anticonvulsant action” value in assay [1] was “significant anticonvulsant action”.

In the case of `N#Cc1sccc1-c1cc(-c2ccccn2)cn(-c2cccnc2)c1=O` [Example 137, 3-(2-Cyanothiophen-3-yl)-5-(2-pyridyl)-1-(3-pyridyl)-1,2-dihydropyridin-2-one], in the assay on AMPA receptor (setting [3]), the IC50 worked out at 50 nM. Further, the “anticonvulsant action” value in assay [1] is given as “significant anticonvulsant action”.

As for `N#Cc1ccccc1-c1cc(-c2cnccn2)cn(-c2ccccc2)c1=O` [Example 199, 3-(2-Cyanophenyl)-1-phenyl-5-(2-pyrazyl)-1,2-dihydropyridin-2-one], the IC50 in the assay on AMPA receptor (setting [3]) amounted to 700 nM. For the same molecule, the “anticonvulsant action” value in assay [1] is given as “significant anticonvulsant action”.

On to `O=c1c(-c2ccccc2[N+](=O)[O-])cc(-c2ccccn2)cn1-c1ccccc1` [Example 270, 3-(2-Nitrophenyl)-1-phenyl-5-(2-pyridyl)-1,2-dihydropyridin-2-one], for which, in the assay with AMPA receptor (setting [3]), the IC50 was found to be 140 nM. Moreover, the “anticonvulsant action” value in assay [1] is “significant anticonvulsant action”.

As to `N#Cc1ccccc1-c1cc(-c2cccc(N)n2)cn(-c2ccccc2)c1=O` [Example 298, 5-(2-Aminopyridin-6-yl)-3-(2-cyanophenyl)-1-phenyl-1,2-dihydropyridin-2-one], in the assay on AMPA receptor (setting [3]), the IC50 was 300 nM. Moreover, the “anticonvulsant action” value in assay [1] was “significant anticonvulsant action”.

`N#Cc1ccccc1-c1cc(C(=O)c2ccccn2)cn(-c2ccccc2)c1=O` [Example 394, 3-(2-Cyanophenyl)-5-(2-pyridinecarbonyl)-1-phenyl-1,2-dihydropyridin-2-one] registered an IC50 with AMPA receptor (setting [4]) of 1400 nM.

Consider `O=C(c1cc(-c2ccccc2)c(=O)n(-c2ccccc2)c1)c1ccccn1` [Example 395, 5-(2-Pyridinecarbonyl)-1-phenyl-3-phenyl-1,2-dihydropyridin-2-one], for which the IC50 in the assay on AMPA receptor (setting [4]) is 900 nM.

In the assay with AMPA receptor (setting [4]), `CCOC(=O)C=Cc1sccc1-c1cc(-c2ccccn2)cn(-c2ccccc2)c1=O` [Example 398, 3-[(2-Ethoxycarbonyl)vinylthiophen-3-yl]-5-(2-pyridyl)-1-phenyl-1,2-dihydropyridin-2-one] came in with an IC50 of 200 nM.

`CC1=NN=C(c2ccc(N)cc2)c2cc3c(cc2C1)OCO3` [GYKI 52466, reference compound]: the IC50 in the assay with AMPA receptor (control compound, same test, 2 μM AMPA) was 9020 nM.
